Assay results from patent US4806532A, “Inhibition of epithelial phosphate transport” (Mayo Foundation for Medical Education and Research, priority 1985, dated 1989).
Structures can show the parent of a compound that is named as a salt. Where two headings read alike, the source gives them in different places.

What was measured:
[1] = target: T1, Na-Pi cotransporter (Rattus norvegicus, UniProt Q06496); test: Na+-gradient-dependent 32Pi uptake by renal cortical BBMV (rapid filtration); format: biochemical; conditions: for 32Pi Uptake 120 min / 32Pi Uptake 20 sec: 5 min preincubation; for 32Pi Uptake 120 min: equilibrium; for 32Pi Uptake 20 sec: mean ± SE of 3-5 experiments
T1 construct: from tissue; host or cells: rat renal cortex, brush border membrane vesicles
T1 sequence (Q06496 1-637): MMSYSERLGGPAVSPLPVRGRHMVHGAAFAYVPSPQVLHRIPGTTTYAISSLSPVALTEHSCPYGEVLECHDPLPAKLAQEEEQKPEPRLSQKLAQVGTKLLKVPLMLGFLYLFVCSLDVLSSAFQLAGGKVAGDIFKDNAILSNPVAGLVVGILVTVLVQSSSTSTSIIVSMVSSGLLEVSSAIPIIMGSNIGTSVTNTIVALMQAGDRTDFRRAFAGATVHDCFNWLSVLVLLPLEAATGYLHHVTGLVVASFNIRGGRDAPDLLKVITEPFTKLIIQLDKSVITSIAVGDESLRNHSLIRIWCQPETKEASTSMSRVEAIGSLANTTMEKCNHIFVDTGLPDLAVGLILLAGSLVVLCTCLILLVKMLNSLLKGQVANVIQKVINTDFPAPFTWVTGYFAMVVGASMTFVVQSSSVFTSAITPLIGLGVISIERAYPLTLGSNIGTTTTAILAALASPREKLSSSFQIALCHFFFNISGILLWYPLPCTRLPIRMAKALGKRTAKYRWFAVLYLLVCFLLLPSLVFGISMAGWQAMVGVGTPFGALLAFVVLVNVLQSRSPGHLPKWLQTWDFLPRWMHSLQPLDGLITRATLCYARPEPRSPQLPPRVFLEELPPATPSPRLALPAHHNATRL
Method: (§1) The brush border membrane vesicles (BBMV) were prepared from renal cortical tissue of adult male Sprague-Dawley rats of an average body weight of about 220 grams. Rats were fed ad libitum standard rat chow containing 0.7% Pi and had free access to distilled water. Rats were sacrificed under anesthesia and dissected renal cortical tissue was used for preparation of BBMV fraction by the divalent cation-precipitation procedure, employed and described in detail in J. Clin. Invest., 67, 1347 (1981) and J. Biol. Chem., 258, 5695 (1983), with the following modifications: (a) MgCl2 instead of CaCl2 was added to crude homogenate (final concentration 10 mM MgCl2) to precipitate membranes other than BBMV; (b) in the final step, BBMV were washed and equilibrated in a medium of pH=7.5, instead of pH=8.5. The enrichment and specific activities of typical BBM enzymes alkaline phosphatase (APases), γ-glutyamyl transferase (γ-GTT), leucineaminopeptidase (LAP) and maltase with use of these modifications were similar as in BBMV fractions prepared in our previous studies. As a final step in the preparative procedure, the BBMV fraction was washed and resuspended in a medium containing 300 mM mannitol and 5 mM Tris-HEPES adjusted to pH=t.5, referred to as "MTH-medium," unless specified otherwise. The analogous BBMV fractions, using the same procedure, were prepared from renal cortices of mongrel dogs, albino mice and New Zealand albino rabbits.
(§2) The BBMV uptake of ^32 Pi, D-[^3 H]-glucose, L-[^3 H]-proline and ^22 Na^+ was measured by means of a rapid filtration technique, as described in J. Clin. Invest., 67, 1347 (1981) and Am. J. Physiol., 246, F133-F139 (1984). Also, unless specified otherwise, the medium for the solute uptake assay consisted of following compounds (in final concentrations): 100 mM mannitol, 100 mM NaCl (or 100 mM KC1) and 5 mM Tris-HEPES (pH=7.5) and eitehr 0.1 mM K2 H^32 PO4, or 0.05 mM D-[^3 H]-glucose, or 0.025 mM L-[^3 H]-proline. IN the ^22 Na^+ uptake studies, the assay medium contained 100 mM ^22 NaCl (^22 NaCl about […] per tube), 100 mM mannitol and 5 mM Tris-HEPES (pH 7.5).
(§3) In most experiments, the Na^+ -gradient-dependent ^32 Pi uptake in the concentrative "uphill" phase was measured at 20 seconds period. Since Na^+ -independent Pi uptake in this time period was quantitatively minor component (<5%) of the Na^+ -gradient-dependent Pi uptake, it was not routinely subtracted.

[2] = system: ^14 C--succinate uptake by BBMV from rat small intestine; test: 14C-succinate uptake by intestinal BBMV; format: biochemical; conditions: 1 mM; for 14C-succinate uptake 120 min: control 78 ± 3; for 14C-succinate uptake 15 sec: control 118 ± 7
[3] = system: intestinal BBM alkaline phosphatase; test: Effect on intestinal BBM alkaline phosphatase (data not shown); format: biochemical, rat
[4] = target: T2, Na-Pi cotransporter (Canis lupus familiaris, UniProt A0A8I3NFY6); test: Na+-gradient-dependent 32Pi uptake by renal BBMV, dog; format: biochemical
T2 construct: were prepared from renal cortices of mongrel dogs, albino mice and New Zealand albino rabbits; from tissue; host or cells: mongrel dog renal cortex, brush border membrane vesicles
T2 sequence (A0A8I3NFY6 1-639): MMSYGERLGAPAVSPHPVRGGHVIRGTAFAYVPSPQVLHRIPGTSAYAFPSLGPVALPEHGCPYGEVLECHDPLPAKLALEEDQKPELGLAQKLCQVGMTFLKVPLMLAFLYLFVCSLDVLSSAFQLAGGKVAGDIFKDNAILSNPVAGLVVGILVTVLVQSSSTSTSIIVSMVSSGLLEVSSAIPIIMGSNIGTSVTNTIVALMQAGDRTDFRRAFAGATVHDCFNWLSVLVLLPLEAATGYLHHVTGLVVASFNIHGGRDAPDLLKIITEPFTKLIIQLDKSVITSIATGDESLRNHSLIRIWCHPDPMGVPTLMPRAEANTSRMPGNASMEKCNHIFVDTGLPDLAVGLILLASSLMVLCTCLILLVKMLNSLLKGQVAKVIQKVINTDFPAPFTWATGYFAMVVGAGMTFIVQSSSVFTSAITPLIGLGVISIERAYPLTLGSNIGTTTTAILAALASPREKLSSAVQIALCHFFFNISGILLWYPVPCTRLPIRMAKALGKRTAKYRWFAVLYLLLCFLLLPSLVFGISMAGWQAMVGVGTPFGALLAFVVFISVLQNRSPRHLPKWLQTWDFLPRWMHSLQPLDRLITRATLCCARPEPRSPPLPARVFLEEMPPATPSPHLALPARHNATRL
Method: as §1, §2, §3

[5] = 1 mM, initial uptake at 20 sec, rat kidney cortex BBMV, read-out: Δ% (inhibition as percent decrease from control) of Na+-gradient-dependent 32Pi uptake

SMILES | Δ% ratio of uptake at uphill phase (20 sec) and equilibrium phase (120 min) ([1]; 0.2 mM) | 32Pi Uptake 120 min ([1]; 0.2 mM) [pmoles/mg protein] | 32Pi Uptake 20 sec ([1]; 0.2 mM) [pmoles/mg protein] | Δ% ratio of uptake at uphill phase (20 sec) and equilibrium phase (120 min) ([1]; 1.0 mM) | 32Pi Uptake 120 min ([1]; 1.0 mM) [pmoles/mg protein] | 32Pi Uptake 20 sec ([1]; 1.0 mM) [pmoles/mg protein] | inhibition at 1000 µM [1, 5] [%] | Δ% ratio of uptake at uphill phase (20 sec) and equilibrium phase (120 min) ([1]; 5.0 mM) | 32Pi Uptake 120 min ([1]; 5.0 mM) [pmoles/mg protein] | 32Pi Uptake 20 sec ([1]; 5.0 mM) [pmoles/mg protein] | 14C-succinate uptake 120 min [2] [pmol/mg protein] | 14C-succinate uptake 15 sec [2] [pmol/mg protein] | inhibition of intestinal BBM alkaline phosphatase [3] | other results
O=C(O)CP(=O)(O)O [PAA, phosphonoacetic acid] | +305 ± 101% | 320 ± 80 | 1057 ± 89 | +331 ± 86% | 274 ± 51 | 1019 ± 94 | -18 | +261 ± 78% | 269 ± 52 | 876 ± 68 | 89 ± 3 | 127 ± 2 | neither TPFA or PAA inhibited | –
O=C(O)P(=O)(O)O [TPFA, Phosphonoformic acid, trisodium salt hexahydrate] | +262 ± 44% | 264 ± 53 | 869 ± 45 | +137 ± 27% | 248 ± 47 | 541 ± 39 | -53 | < 0.0% | 239 ± 44 | 153 ± 28 | 81 ± 1 | 125 ± 3 | neither TPFA or PAA inhibited | effect on intravesicular volume of BBMV [1]: did not alter; nature of the inhibitory effect on Pi uptake [1]: competitive; inhibition at 1000 µM ([1]; 20 s, Rat, 1 mM TPFA, read-out: percent decrease of 20 sec 32Pi-uptake relative to control value): 59.1%; inhibition at 5000 µM ([1]; 20 s, Rat, 5 mM TPFA, read-out: percent decrease of 20 sec 32Pi-uptake relative to control value): 78%; effect on 32Pi uptake by BBMV in the absence of Na+ ([1]; NaCl replaced by KCl, 1 mM TPFA, FIG. 1): had no effect; 32Pi-uptake 120 min ([1]; Rat, 1 mM TPFA, control 361 ± 9): 359 ± 8 pmoles Pi/mg protein/time; 32Pi-uptake 20 sec ([1]; Rat, 1 mM TPFA, control 1570 ± 31): 783 ± 6 pmoles Pi/mg protein/time; 32Pi-uptake 20 sec ([1]; Rat, 5 mM TPFA): 344 ± 7 pmoles Pi/mg protein/time; 32Pi-uptake 120 min ([1]; Rat, 5 mM TPFA): 379 ± 34 pmoles Pi/mg protein/time; Ki ([1]; competitive inhibition, renal cortical BBMV): 460 µM; effect on 32Pi uptake under Na+ equilibrium conditions [Na+i = Na+o] ([1]; initial fast uptake phase (0-60 seconds), data not shown): inhibited; 32Pi-uptake 120 min ([4]; 1 mM TPFA, control 410 ± 5): 377 ± 6 pmoles Pi/mg protein/time; 32Pi-uptake 20 sec ([4]; 1 mM TPFA, control 1178 ± 15): 476 ± 9 pmoles Pi/mg protein/time; 32Pi-uptake 20 sec ([4]; 5 mM TPFA): 110 ± 3 pmoles Pi/mg protein/time; 32Pi-uptake 120 min ([4]; 5 mM TPFA): 428 ± 9 pmoles Pi/mg protein/time; inhibition at 1000 µM ([4]; 20 s, 1 mM TPFA, read-out: percent decrease of 20 sec 32Pi-uptake relative to control value): 59.6%; inhibition at 5000 µM ([4]; 20 s, 5 mM TPFA, read-out: percent decrease of 20 sec 32Pi-uptake relative to control value): 90.7%
